According to patent publication US12202805B2, “Process for preparing (5S)-{[2-(4-carboxyphenyl)ethyl] |2-(2-{|3-chloro-4'-(trifluoromethyl)biphenyl-4-yl]methoxy}phenyl)ethyl]aminol-5,6,7,8-tetrahydroquinoline-2-carboxylic acid and its crystalline forms for use as pharmaceutically active compound” (Bayer Aktiengesellschaft, priority 2021, dated 2025):
Where “and” joins values, the source holds several entries; their conditions need not be identical. Equal values may be shown once.

Test system: thromboxane A2 challenged PAH-minipig
Assay: Haemodynamics in the anesthetized thromboxane challenged minipig, intratracheal dry powder (PAP, BP)
Type: in vivo, Göttingen Minipigs
Conditions: 375 μg/kg i.t.
Protocol: Healthy Göttingen Minipigs® Ellegaard (Ellegaard, Denmark) of both sexes and having a weight of 2-6 kg were used. The animals were sedated by i.m. administration of about 25 mg/kg ketamine and about 10 mg/kg azaperone. Anaesthesia was initiated by i.v. administration of about 2 mg/kg ketamine and about 0.3 mg/kg midazolam. Maintenance of anaesthesia was by i.v. administration of about 7.5-30 mg/kg/h ketamine and about 1-4 mg/kg/h midazolam (rate of infusion 1-4 ml/kg/h) and about 150 μg/kg/h pancuronium bromide (for example Pancuronium-Actavis). After intubation, the animals were ventilated by the ventilator at a constant respiratory volume (10-12 ml/kg, 35 breaths/min; Avea®, Viasys Healthcare, USA, or Engström Carestation, GE Healthcare, Freiburg, Germany) such that an end-tidal CO2 concentration of about 5% was achieved. Ventilation was performed with room air, enriched with about 40% oxygen (normoxia). For the measurement of the haemodynamic parameters such as pulmonary arterial pressure (PAP), blood pressure (BP) and heart rate (HR), catheters were inserted into the carotid artery to measure the blood pressure, and a Swan-Ganz® catheter was introduced in a flow-directed manner via the jugular vein into the pulmonary artery. The haemodynamic signals were recorded and evaluated by means of pressure transducers (Combitransducer, B. Braun, Melsungen, Germany)/amplifiers and Ponemah® as data acquisition software.
As reference pure Lactose vehicle was applied in the beginning of each experiment.

Structure (SMILES): O.O=C(O)c1ccc(CCN(CCc2ccccc2OCc2ccc(-c3ccc(C(F)(F)F)cc3)cc2Cl)[C@H]2CCCc3nc(C(=O)O)ccc32)cc1.O=C(O)c1ccc(CCN(CCc2ccccc2OCc2ccc(-c3ccc(C(F)(F)F)cc3)cc2Cl)[C@H]2CCCc3nc(C(=O)O)ccc32)cc1 [example 6a, (5S)—{[2-(4-Carboxyphenyl)ethyl][2-(2-{[3-chloro-4′-(trifluoromethyl)biphenyl-4-yl]methoxy}phenyl)-ethyl]amino}-5,6,7,8-tetrahydroquinoline-2-carboxylic acid semihydrate]
- PAP, % changes vs. prevalues (time 160 min): 59.9% and 77.1% and 73.1%
- BP (mean) (time 170 min): 95 mmHg and 79 mmHg
- BP, % changes vs. prevalues (time 170 min): 95.6% and 99.7% and 107.4%
- PAP(mean) (time 170 min): 24.0 mmHg and 32.4 mmHg and 29.9 mmHg
- PAP, % changes vs. prevalues (time 170 min): 58.6% and 76.7% and 72.3%
- BP (mean) (time 180 min): 94 mmHg and 79 mmHg
- BP, % changes vs. prevalues (time 180 min): 94.6% and 99.7% and 106.3%
- PAP(mean) (time 180 min): 23.7 mmHg and 31.9 mmHg and 29.7 mmHg
- PAP, % changes vs. prevalues (time 180 min): 58.0% and 75.4% and 71.8%
- BP (mean) (time 190 min): 94 mmHg and 85 mmHg and 93 mmHg
- BP, % changes vs. prevalues (time 190 min): 94.6% and 108.5% and 105.2%
- PAP(mean) (time 190 min): 24.4 mmHg and 32.4 mmHg and 29.2 mmHg
- PAP, % changes vs. prevalues (time 190 min): 59.5% and 78.4% and 70.7%
- BP (mean) (time 200 min): 92 mmHg and 85 mmHg
- BP, % changes vs. prevalues (time 200 min): 92.6% and 107.3% and 104.0%
- PAP(mean) (time 200 min): 24.8 mmHg and 32.4 mmHg and 29.4 mmHg
- PAP, % changes vs. prevalues (time 200 min): 60.5% and 76.8% and 71.1%
- BP (mean) (time 210 min): 90 mmHg and 81 mmHg and 91 mmHg
- BP, % changes vs. prevalues (time 210 min): 90.6% and 102.2% and 102.9%
- PAP(mean) (time 210 min): 24.8 mmHg and 31.9 mmHg and 29.2 mmHg
- PAP, % changes vs. prevalues (time 210 min): 60.6% and 75.5% and 70.8%
- BP (mean) (time 220 min): 89 mmHg and 79 mmHg
- BP, % changes vs. prevalues (time 220 min): 89.6% and 99.7% and 100.6%
- PAP(mean) (time 220 min): 24.7 mmHg and 31.7 mmHg and 29.1 mmHg
- PAP, % changes vs. prevalues (time 220 min): 60.3% and 75.1% and 70.3%
- BP (mean) (time 230 min): 87 mmHg and 78 mmHg and 89 mmHg
- BP, % changes vs. prevalues (time 230 min): 87.6% and 98.4% and 100.6%
- PAP(mean) (time 230 min): 24.0 mmHg and 31.3 mmHg and 28.6 mmHg
- PAP, % changes vs. prevalues (time 230 min): 58.7% and 74.1% and 69.1%
- BP (mean) (time 240 min): 87 mmHg and 77 mmHg
- BP, % changes vs. prevalues (time 240 min): 87.6% and 97.2% and 98.4%
- PAP(mean) (time 240 min): 24.1 mmHg and 31.3 mmHg and 28.1 mmHg
- PAP, % changes vs. prevalues (time 240 min): 58.9% and 74.2% and 68.0%
- BP (mean) (time 250 min): 85 mmHg and 76 mmHg
- BP, % changes vs. prevalues (time 250 min): 85.5% and 95.9% and 96.1%
- PAP(mean) (time 250 min): 24.2 mmHg and 30.7 mmHg and 28.1 mmHg
- PAP, % changes vs. prevalues (time 250 min): 59.0% and 72.7% and 67.9%
- BP (mean) (time 260 min): 85 mmHg and 76 mmHg and 84 mmHg
- BP, % changes vs. prevalues (time 260 min): 85.5% and 95.9% and 95.0%
- PAP(mean) (time 260 min): 24.1 mmHg and 30.6 mmHg and 28.1 mmHg
- PAP, % changes vs. prevalues (time 260 min): 58.8% and 72.5% and 68.0%
- BP (mean) (time 270 min): 85 mmHg and 76 mmHg and 87 mmHg
- BP, % changes vs. prevalues (time 270 min): 85.5% and 95.9% and 98.4%
- PAP(mean) (time 270 min): 24.4 mmHg and 30.6 mmHg and 27.8 mmHg
- PAP, % changes vs. prevalues (time 270 min): 59.6% and 72.4% and 67.3%
- BP (mean) (time 280 min): 85 mmHg and 75 mmHg and 84 mmHg
- BP, % changes vs. prevalues (time 280 min): 85.5% and 94.6% and 95.0%
- PAP(mean) (time 280 min): 24.3 mmHg and 30.7 mmHg and 28.0 mmHg
- PAP, % changes vs. prevalues (time 280 min): 59.3% and 72.6% and 67.8%
- BP (mean) (time 290 min): 84 mmHg and 75 mmHg and 83 mmHg
- BP, % changes vs. prevalues (time 290 min): 84.5% and 94.6% and 93.9%
- PAP(mean) (time 290 min): 24.1 mmHg and 30.7 mmHg and 27.6 mmHg
- PAP, % changes vs. prevalues (time 290 min): 58.8% and 72.6% and 66.7%
- BP (mean) (time 300 min): 83 mmHg and 77 mmHg and 82 mmHg
- BP, % changes vs. prevalues (time 300 min): 83.5% and 97.2% and 92.7%
- PAP(mean) (time 300 min): 23.7 mmHg and 30.5 mmHg and 27.7 mmHg
- PAP, % changes vs. prevalues (time 300 min): 57.9% and 72.2% and 67.1%
